Square brackets hold non-standard residues; d marks the D form. Peptide text beside a SMILES is read from it. Orn = NCCC[C@H](N)C(=O)O
Legend:
Mcl-1 = Mcl-1 (Homo sapiens, UniProt Q07820); experiment: Affinity for Mcl-1; type: binding; settings: statement without data
peripheral blood cells [1] = experiment: Peripheral blood cell counts (flow cytometry, hematology analyzer); type: in vivo, mice
Experimental: (§1) Peripheral blood and bone marrow were isolated from mice following euthanasia. Total leukocyte numbers were determined using an automated hematology analyzer ABX Pentra 60 (Diamond Diagnostics, Inc, Holliston, Mass.). The red blood cells in peripheral blood were lysed and the remaining cells were fixed with BD FACS lysing solution (BD Biosciences, Pharmingen) following incubation with antibodies. Bone marrow cells were isolated by flushing Dulbecco's Modified Eagle Medium (DMEM) (Gibco, Grand Island, N.Y.) through the tibias and red blood cells were lysed with BD PharM Lyse (BD Biosciences, Pharmingen) prior to incubation with antibodies. Cells with incubated with Fc Block (BD Biosciences, Pharmingen) then stained with fluorochrome conjugated antibodies to CD45, CD11b, Gr-1, CD62L, Ly-6C, Ly-6G, CD31 (BD Biosciences, Pharmingen) or isotype control antibodies for 30 minutes. Cells were acquired on a BD LSRII (BD Biosciences, Pharmingen) using Diva Software at the Saint Louis University Core Flow Cytometry Facility. All analysis was performed using FlowJo software (Tree Star Inc.).
Peripheral blood was isolated by cardiac sticks. Cells were blocked for 10 minutes with Fc block and then stained with anti-CD45, anti-CD19, anti-CD3, anti-CD4, anti-CDS, anti-CD11b, anti-Gr-1, and anti-CD62L antibodies for 30 minutes. Platelets and RBCs were determined on an automated hematology analyzer ABX Pentra 60. Following incubation with antibodies red blood cells were lysed and cells were fixed with Becton Dickenson FACS lysing solution.

[2] = system: mature neutrophils in bone marrow; experiment: Bone marrow neutrophil numbers (flow cytometry); type: in vivo, mice; settings: as compared to saline and TAT-inactive BH3
Experimental: as §1
TAT-BH3 peptides decrease the number of neutrophils in circulation and in bone marrow. We have shown that numbers of neutrophils and macrophages are reduced in the joints of mice treated with TAT-BH3 peptides.

[3] = system: K/B×N serum transfer-induced arthritis; experiment: Histopathological scoring of ankle sections (H&E, safranin O/methyl green); type: in vivo, mice
Experimental: Paraffin embedded ankle or liver sections were stained with hematoxylin and eosin (H&E), Safranin O and methyl green. Histopathological scoring was performed and ankle sections were evaluated by examining at least 3 sections/ankle and 3 fields/section at 400× magnification. H&E ankle sections were scored on a 0-5 scale for inflammation, with 0=normal, 1=minimal infiltration, 2=mild infiltration, 3=moderate infiltration, […], mad 5=severe infiltration. Bone erosion was scored on a 0-5 scale by viewing H&E ankle sections, with 0=no or normal bone resorption, 1=small areas of resorption, 2=more numerous areas of resorption, 3=obvious resorption, 4=full thickness defects in the bone without distortion of the profile, 5=full thickness defects in the bone with distortion of the profile. H&E ankle stained sections were scored on a 0-5 scale for pannus formation, with 0=no pannus formation, 1=minimal pannus formation, 2=mild pannus formation, 3=moderate pannus formation, 4=marked pannus formation, and 5=severe pannus formation. H&E and Safranin 0 and methyl green sections were scored on a 0-5 scale for cartilage damage, with 0=no damage, 1-2=superficial cartilage destruction, 3-4=cartilage destruction to middle zone, 5=cartilage destruction to tide mark. Polymorphonuclear (PMN) leukocyte infiltration: 0=no PMNs, 1=rare scattered PMNs, 2=more frequent scattered PMNs, 3=small clusters of PMNs, 4=larger clusters of PMNs, mad 5=sheets of PMNs (abscess). Histopathological scoring was conducted on an Olympus BX40 microscope (1000×). Photographs were taken on a Nikon microscope equipped with the Nikon digital camera DMX 1200.
To accurately assess the degree of inflammation and destruction of cartilage and bone, ankle sections were examined using a histopathological scoring system on hematoxylin and eosin (H& E) or safranin O-methyl green stained ankle sections.

peripheral blood cells [4] = experiment: Peripheral blood cell counts (flow cytometry, hematology analyzer); type: in vivo, mice; settings: as compared to TAT-inactive BH3 and saline
[5] = as compared to TAT-inactive BH3 and saline
[6] = peripheral blood, hematology analyzer, mean ± standard error
[7] = peripheral blood, mean ± standard error
[8] = as compared to saline or TAT-inactive BH3

Sequence of Mcl-1 (Q07820 whole entry, species assumed): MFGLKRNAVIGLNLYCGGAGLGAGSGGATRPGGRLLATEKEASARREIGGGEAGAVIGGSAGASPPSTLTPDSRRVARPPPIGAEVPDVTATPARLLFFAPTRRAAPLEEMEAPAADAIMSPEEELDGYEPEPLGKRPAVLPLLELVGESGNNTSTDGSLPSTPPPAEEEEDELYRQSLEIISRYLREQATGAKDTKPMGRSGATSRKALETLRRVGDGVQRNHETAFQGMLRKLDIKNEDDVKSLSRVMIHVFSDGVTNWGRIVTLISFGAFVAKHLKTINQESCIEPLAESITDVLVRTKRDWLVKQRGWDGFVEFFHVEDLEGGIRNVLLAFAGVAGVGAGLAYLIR

## CC[C@H](C)[C@H](NC(=O)[C@H](CCCNC(=N)N)NC(=O)[C@H](CCCNC(=N)N)NC(=O)[C@H](CC(C)C)NC(=O)[C@H](CCC(=O)O)NC(=O)[C@H](CCC(N)=O)NC(=O)[C@H](C)NC(=O)[C@@H](NC(=O)[C@H](Cc1c[nH]c2ccccc12)NC(=O)[C@@H](NC(=O)[C@H](CCC(=O)O)NC(=O)[C@H](CCCNC(=N)N)NC(=O)[C@H](CCCNC(=N)N)NC(=O)[C@H](CCCNC(=N)N)NC(=O)[C@H](CCCN)NC(=O)[C@H](CCCNC(=N)N)NC(=O)[C@H](CCCNC(=N)N)NC(=O)[C@H](CCCCN)NC(=O)[C@H](CCCCN)NC(=O)[C@H](CCCNC(=N)N)NC(C)=O)[C@@H](C)CC)[C@@H](C)CC)C(=O)NCC(=O)N[C@@H](CC(=O)O)C(=O)N[C@@H](CCC(=O)O)C(=O)N[C@@H](Cc1ccccc1)C(=O)N[C@@H](CC(N)=O)C(=O)N[C@@H](C)C(=O)N[C@@H](Cc1ccc(O)cc1)C(=O)N[C@@H](Cc1ccc(O)cc1)C(=O)N[C@@H](C)C(=O)N[C@@H](CCCNC(=N)N)C(=O)O [TAT-BH3] (Ac-RKKRR[Orn]RRREIWIAQELRRIGDEFNAYYAR-OH)
Mcl-1
  affinity for Mcl-1: high affinity
Peripheral blood cells [1]; as compared to TAT-inactive BH3
  decrease in platelets: 29%
Peripheral blood cells [1]; [5]
  number of circulating leukocytes: did not reduce
  number of red blood cells: did not reduce
Peripheral blood cells [1]; as compared to TAT-inactive peptide and saline
  decrease in numbers of neutrophils in peripheral blood: 40%
Peripheral blood cells [1]; as compared to saline
  decrease in platelets: 23%
Peripheral blood cells [1]; general statement
  effect on platelet counts: minimal effect
Peripheral blood cells [1]; [6]
  Platelets: 930.3 ± 55.32 (1E6)
  RBCs: 9.60 ± 0.42 (1E6)
Peripheral blood cells [1]; [7]
  B-cells+: 2.51 ± 0.11 (1E6)
  CD4+ T-cells: 1.25 ± 0.06 (1E6)
  CD8+ T-cells: 0.86 ± 0.04 (1E6)
  Inflammatory monocytes: 0.26 ± 0.03 (1E6)
  N-K-cells: 0.23 ± 0.02 (1E6)
  Resident Monocytes: 0.21 ± 0.02″ (1E6)
  T-cells: 2.20 ± 0.10 (1E6)
  Total Leukocytes: 6.2 ± 0.22 (1E6)
[2]
  decrease in numbers of mature neutrophils in bone marrow: 50%
[3]; as compared to TAT-inactive BH3 or saline
  reduction in PMN score: 69%
[3]; [8]
  decrease in bone erosion score: 71%
  reduction in inflammation: 72%
  suppression of pannus formation: 79%
Peripheral blood cells [4]
  number of splenocytes: did not reduce

Source: patent US8785388B2, “TAT-BH3 methods for treating arthritis” (Saint Louis University, priority 2007, dated 2014)
